Like-named read-outs stand apart in the source and are kept apart here.

In one assay the test system is cells. The assay can be described thus: Measurement of lactate change amount within cells. The assay is classed as cell-based. The protocol: Cells were treated with 400 μl of 6% PCA, and then collected and extracted. Centrifugation (13,000 rpm, 10 min) was performed. A precipitate was dried using a Speed-Vac and then a weight of dried precipitate was measured. A supernatant was neutralized using 400 μl of 1 M KOH and a final volume thereof was adjusted to 1 ml using 0.33 M KH2PO4/K2HPO4, pH 7.5. Centrifugation (13,000 rpm, 10 min) was performed and the amount of lactate in a supernatant was measured (Megazyme, K-LATE).

The target of a further assay is NQO1 protein (Homo sapiens, UniProt P15559). Briefly: NQO1 activity measurement (cytochrome C reduction). The assay is classed as biochemical. The protocol:
An enzyme reaction solution included 25 mM Tris/HCl (pH 7.4), 0.14% bovine serum albumin, 200 μM NADH, 77 μM cytochrome C, and 5 ng of NQO1 protein. Enzymatic reaction was initiated by adding NADH and performed at 37° C. In this regard, a reaction rate was measured by observing absorbance, which was increased due to reduction of cytochrome C, at 550 nm for 10 minutes and NQO1 activity was represented as an amount of reduced cytochrome C [nmol cytochrome C reduced/min/μg protein].
Extinction coefficient for cytochrome C:21.1 mmol/L/cm=21.1 μmol/ml/cm

The mark [1] stands for this setting: 5 μM, 37° C., absorbance at 550 nm for 10 minutes, 200 μM NADH, 77 μM cytochrome C, 5 ng NQO1 protein.

Chain of NQO1 protein (P15559 whole entry, species assumed): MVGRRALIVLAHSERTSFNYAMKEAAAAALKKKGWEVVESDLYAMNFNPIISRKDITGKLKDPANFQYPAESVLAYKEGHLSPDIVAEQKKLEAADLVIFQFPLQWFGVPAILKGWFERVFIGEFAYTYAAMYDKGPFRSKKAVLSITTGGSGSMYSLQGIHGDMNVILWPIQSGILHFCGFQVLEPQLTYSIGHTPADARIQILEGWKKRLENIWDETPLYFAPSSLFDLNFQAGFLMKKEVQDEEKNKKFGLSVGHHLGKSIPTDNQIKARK

As for `O=C1C(=O)c2nc(-c3ccccc3)oc2-c2ccccc21` [Example 3, 2-phenylnaphtho[2,1-d]oxazole-4,5-dione], in the assay on cells, the “Lactate change amount within cells (nmol/mg cell)” value (shortened to “Lactate change amount within cells”) worked out at 8.1 nmol/mg cell. The “NQO1 activity (5 μM, [nmol cytochrome C reduced/min/μg protein])” value at NQO1 protein (setting [1]) was 255.5 nmol cytochrome C reduced/min/μg protein.

`O=C1C(=O)c2nc(CN3CCCCC3)oc2-c2ccccc21` [Example 6, 2-(piperidin-1-ylmethyl)naphtho[2,1-d]oxazole-4,5-dione]: the “Lactate change amount within cells” value in the assay with cells is recorded as 6.7 nmol/mg cell. In addition, at NQO1 protein (setting [1]), the “NQO1 activity (5 μM, [nmol cytochrome C reduced/min/μg protein])” value was 171.8 nmol cytochrome C reduced/min/μg protein. Turning to `Cc1cc(=O)n(C)c2c1-c1oc(C(C)C)nc1C(=O)C2=O` [Example 7, 2-isopropyl-6,9-dimethyloxazolo[5,4-f]quinoline-4,5,7(6H)-trione], the “Lactate change amount within cells” value in the assay on cells is recorded as 8.0 nmol/mg cell. Also, the “NQO1 activity (5 μM, [nmol cytochrome C reduced/min/μg protein])” value on NQO1 protein is reported as 69.8 nmol cytochrome C reduced/min/μg protein. For `COc1cccc2c1C(=O)C(=O)c1nc(C(C)C)oc1-2` [Example 10, 2-isopropyl-6-methoxynaphtho[2,1-d]oxazole-4,5-dione], the “Lactate change amount within cells” value in the assay with cells turned out to be 11.5 nmol/mg cell. The “NQO1 activity (5 μM, [nmol cytochrome C reduced/min/μg protein])” value on NQO1 protein (setting [1]) is recorded as 20.7 nmol cytochrome C reduced/min/μg protein. With `COc1cccc2c1-c1oc(CN(C)C)nc1C(=O)C2=O` [Example 11, 2-((dimethylamino)methyl)-9-methoxynaphtho[2,1-d]oxazole-4,5-dione], in the assay on cells, the “Lactate change amount within cells” value is reported as 6.6 nmol/mg cell. `CC(C)c1nc2c(o1)-c1c(cccc1[N+](=O)[O-])C(=O)C2=O` [Example 12, 2-isopropyl-9-nitronaphtho[2,1-d]oxazole-4,5-dione]: in the assay on cells, the “Lactate change amount within cells” value worked out at 10.3 nmol/mg cell. The “NQO1 activity (5 μM, [nmol cytochrome C reduced/min/μg protein])” value at NQO1 protein (setting [1]) was 379.2 nmol cytochrome C reduced/min/μg protein.

Regarding `CC(C)c1nc2c(o1)-c1c(N)cccc1C(=O)C2=O` [Example 13], the “NQO1 activity (5 μM, [nmol cytochrome C reduced/min/μg protein])” value on NQO1 protein (setting [1]) is listed as 68.6 nmol cytochrome C reduced/min/μg protein. As to `Cc1cc(=O)[nH]c2c1-c1oc(C(C)C)nc1C(=O)C2=O` [Example 14, 2-isopropyl-9-methyloxazolo[5,4-f]quinoline-4,5,7(6H)-trione], the “NQO1 activity (5 μM, [nmol cytochrome C reduced/min/μg protein])” value at NQO1 protein is on record as 104.2 nmol cytochrome C reduced/min/μg protein.

With `CC(C)c1nc2c(o1)-c1cccc(O)c1C(=O)C2=O` [Example 15, 6-hydroxy-2-isopropylnaphtho[2,1-d]oxazole-4,5-dione], in the assay on cells, the “Lactate change amount within cells” value was found to be 4.1 nmol/mg cell. For the same compound, the “NQO1 activity (5 μM, [nmol cytochrome C reduced/min/μg protein])” value on NQO1 protein (setting [1]) is reported as 20.8 nmol cytochrome C reduced/min/μg protein.

With `COc1cccc2c1C(=O)C(=O)c1nc(C(C)(C)C)oc1-2` [Example 16, 2-tert-butyl-6-methoxynaphtho[2,1-d]oxazole-4,5-dione], the “NQO1 activity (5 μM, [nmol cytochrome C reduced/min/μg protein])” value at NQO1 protein (setting [1]) is recorded as 4.2 nmol cytochrome C reduced/min/μg protein. In the case of `CC(C)(C)c1nc2c(o1)-c1cccc(O)c1C(=O)C2=O` [Example 17, 2-tert-butyl-6-hydroxynaphtho[2,1-d]oxazole-4,5-dione], the “NQO1 activity (5 μM, [nmol cytochrome C reduced/min/μg protein])” value on NQO1 protein (setting [1]) was 7.4 nmol cytochrome C reduced/min/μg protein. For the compound `CC(C)(C)c1nc2c(o1)-c1c(cccc1[N+](=O)[O-])C(=O)C2=O` [Example 18], the “Lactate change amount within cells” value in the assay on cells came to 13.5 nmol/mg cell. At NQO1 protein (setting [1]), the “NQO1 activity (5 μM, [nmol cytochrome C reduced/min/μg protein])” value is reported as 382.9 nmol cytochrome C reduced/min/μg protein. For the compound `CC(C)(C)c1nc2c(o1)-c1c(N)cccc1C(=O)C2=O` [Example 19], at NQO1 protein (setting [1]), the “NQO1 activity (5 μM, [nmol cytochrome C reduced/min/μg protein])” value is 0.4 nmol cytochrome C reduced/min/μg protein. For `CC(C)c1nc2c(o1)-c1cccnc1C(=O)C2=O` [Example 20, 2-isopropyloxazolo[5,4-f]quinoline-4,5-dione], in the assay on cells, the “Lactate change amount within cells” value came to 9.2 nmol/mg cell. The “NQO1 activity (5 μM, [nmol cytochrome C reduced/min/μg protein])” value at NQO1 protein (setting [1]) is recorded as 221.0 nmol cytochrome C reduced/min/μg protein. In the case of `COc1c([N+](=O)[O-])ccc2c1C(=O)C(=O)c1nc(C(C)(C)C)oc1-2` [Example 21, 2-tert-butyl-6-methoxy-7-nitronaphtho[2,1-d]oxazole-4,5-dione], on NQO1 protein (setting [1]), the “NQO1 activity (5 μM, [nmol cytochrome C reduced/min/μg protein])” value is 40.3 nmol cytochrome C reduced/min/μg protein. As for `COc1ccc([N+](=O)[O-])c2c1C(=O)C(=O)c1nc(C(C)(C)C)oc1-2` [Example 22, 2-tert-butyl-6-methoxy-9-nitronaphtho[2,1-d]oxazole-4,5-dione], the “NQO1 activity (5 μM, [nmol cytochrome C reduced/min/μg protein])” value on NQO1 protein (setting [1]) is 102.5 nmol cytochrome C reduced/min/μg protein. On the same count and under the same terms, the value for `CC(C)(C)c1nc2c(o1)-c1c([N+](=O)[O-])ccc(O)c1C(=O)C2=O` [Example 23, 2-tert-butyl-6-hydroxy-9-nitronaphtho[2,1-d]oxazole-4,5-dione] was 60.9 nmol cytochrome C reduced/min/μg protein; that for `CC(C)(C)c1nc2c(o1)-c1c(O)cccc1C(=O)C2=O` [Example 25, 2-tert-butyl-9-hydroxynaphtho[2,1-d]oxazole-4,5-dione] was 23.5 nmol cytochrome C reduced/min/μg protein.

As for `CC(C)(C)c1nc2c(o1)C(=O)C(=O)c1cc(Cl)ccc1-2` [Example 31, 2-tert-butyl-7-chloronaphtho[1,2-d]oxazole-4,5-dione], the “Lactate change amount within cells” value in the assay on cells amounted to 10.9 nmol/mg cell. Regarding `CC(C)c1nc2c(o1)C(=O)C(=O)c1ncccc1-2` [Example 33], the “Lactate change amount within cells” value in the assay on cells was determined as 10.2 nmol/mg cell. Also, the “NQO1 activity (5 μM, [nmol cytochrome C reduced/min/μg protein])” value at NQO1 protein (setting [1]) is given as 458.3 nmol cytochrome C reduced/min/μg protein. The corresponding values for `Cc1nc2c(o1)C(=O)C(=O)c1ncccc1-2` [Example 34] are 8.9 nmol/mg cell and 923.5 nmol cytochrome C reduced/min/μg protein. The corresponding values for `CC(C)c1nc2c(o1)-c1cnccc1C(=O)C2=O` [Example 37, 2-isopropyloxazolo[4,5-h]isoquinoline-4,5-dione] are 10.6 nmol/mg cell and 845.7 nmol cytochrome C reduced/min/μg protein. As for `CC(C)C(=O)Nc1ccc2c(c1)C(=O)C(=O)c1oc(C(C)(C)C)nc1-2` [Example 38, N-(2-tert-butyl-4,5-dioxo-4,5-dihydronaphtho[1,2-d]oxazol-7-yl)isobutyramide], the “Lactate change amount within cells” value with cells amounted to 4.6 nmol/mg cell. The “NQO1 activity (5 μM, [nmol cytochrome C reduced/min/μg protein])” value at NQO1 protein (setting [1]) is 63.4 nmol cytochrome C reduced/min/μg protein. For `O=C1C(=O)c2[nH]c(=O)oc2-c2ccccc21` [Example 39], the “Lactate change amount within cells” value with cells was found to be 7.8 nmol/mg cell. Also, on NQO1 protein (setting [1]), the “NQO1 activity (5 μM, [nmol cytochrome C reduced/min/μg protein])” value is 30.1 nmol cytochrome C reduced/min/μg protein. In the same order, the values of `CC(C)(C)c1nc2c(o1)C(=O)C(=O)c1cccnc1-2` [Example 40] are 8.1 nmol/mg cell and 527.4 nmol cytochrome C reduced/min/μg protein. Consider `O=C1C(=O)c2nc(CNc3ccc(F)cc3)oc2-c2ccccc21` [Example 43], for which the “Lactate change amount within cells” value with cells was 4.4 nmol/mg cell. In addition, the “NQO1 activity (5 μM, [nmol cytochrome C reduced/min/μg protein])” value on NQO1 protein is reported as 263.0 nmol cytochrome C reduced/min/μg protein.

As to `O=C1C(=O)c2nc(CNc3ccc(Cl)cc3)oc2-c2ccccc21` [Example 44], the “Lactate change amount within cells” value with cells came to 5.4 nmol/mg cell. Besides, at NQO1 protein, the “NQO1 activity (5 μM, [nmol cytochrome C reduced/min/μg protein])” value is on record as 239.0 nmol cytochrome C reduced/min/μg protein. In the same order, the values of `O=C1C(=O)c2nc(CNc3cccc(Cl)c3)oc2-c2ccccc21` [Example 45] are 6.7 nmol/mg cell and 229.2 nmol cytochrome C reduced/min/μg protein. As to `COc1ccc(NCc2nc3c(o2)-c2ccccc2C(=O)C3=O)cc1` [Example 46], the “Lactate change amount within cells” value in the assay on cells was determined as 7.4 nmol/mg cell. Besides, the “NQO1 activity (5 μM, [nmol cytochrome C reduced/min/μg protein])” value at NQO1 protein is 208.0 nmol cytochrome C reduced/min/μg protein. For `CN(Cc1nc2c(o1)-c1ccccc1C(=O)C2=O)c1ccc(F)cc1` [Example 47], the “Lactate change amount within cells” value with cells is given as 7.6 nmol/mg cell. The “NQO1 activity (5 μM, [nmol cytochrome C reduced/min/μg protein])” value on NQO1 protein (setting [1]) is on record as 227.5 nmol cytochrome C reduced/min/μg protein.

For `O=C1C(=O)c2nc(CNc3ccccc3)oc2-c2ccccc21` [Example 48], in the assay on cells, the “Lactate change amount within cells” value was found to be 6.9 nmol/mg cell. For the same compound, at NQO1 protein, the “NQO1 activity (5 μM, [nmol cytochrome C reduced/min/μg protein])” value is listed as 241.4 nmol cytochrome C reduced/min/μg protein. `Cc1cc(F)ccc1NCc1nc2c(o1)-c1ccccc1C(=O)C2=O` [Example 49]: the “Lactate change amount within cells” value in the assay on cells stood at 6.0 nmol/mg cell. Moreover, the “NQO1 activity (5 μM, [nmol cytochrome C reduced/min/μg protein])” value on NQO1 protein (setting [1]) is listed as 229.6 nmol cytochrome C reduced/min/μg protein.

As to `CC(=O)OCc1nc2c(o1)-c1ccccc1C(=O)C2=O` [Example 50], the “Lactate change amount within cells” value in the assay with cells is recorded as 8.8 nmol/mg cell. Moreover, on NQO1 protein (setting [1]), the “NQO1 activity (5 μM, [nmol cytochrome C reduced/min/μg protein])” value was 244.3 nmol cytochrome C reduced/min/μg protein.

The values above are taken from patent US10927085B2, “1,2-naphthoquinone based derivative and method of preparing the same” (HUEN Co., Ltd., priority 2013, dated 2021).
